Data taken from patent US10807957B2, “Tetradentate chelating monoquinoline derivative, manufacturing method thereof, and application of same as metal ion regulator for neurodegenerative disease” (GUANGDONG UNIVERSITY OF TECHNOLOGY, priority 2016, dated 2020).

Assay: Affinity constants for Cu2+ by competitive chelation with UV/Vis monitoring
Assay type: binding
Conditions: Cu2+ versus Zn2+, pH 7.4
Procedure: Estimation of affinity constants of compounds of general formula (I) with metal ions: […]
Affinity Constants for Cu^2:
The following mother solutions were prepared: (A) ligand L=TDMQ-n, 300 μM in 20 mM Tris.HCl pH 7.4, 150 mM NaCl; (B) Competing ligands (namely NTA, EDTA, EDDA, EGTA, or CDTA), 300 μM in 20 mM Tris.HCl pH 7.4, 150 mM NaCl; (C) CuCl2, 15 mM in H2O. In the UV/Vis cuvette, 100 μL of (A), 100 μL of (B), 1800 μL of 20 mM Tris.HCl pH 7.4, 150 mM NaCl, and 2 μL of (C) were added in that order. The final concentrations of L, Competing ligand (LC), and Cu^2+ were 15 μM.
The spectrum of the ligand L (2 μL of H2O instead of 2 μL of (C)) was recorded according to above conditions; and the spectrum of [Cu^2+−L] (100 μL of 20 mM Tris.HCl pH 7.4, 150 mM NaCl, instead of 100 μL of (B)) was recorded according to above conditions. All ligands and complexes studied followed the Beer-Lambert law in the experimental conditions used.
The equations of complexation are as follows: […]
It can be deduced that at the equilibrium:
UV/Vis monitoring at 383 nm allowed to determine the absorbance of the competitive chelation mixture (Amix), the absorbance of L in the absence of Cu^2+ (AL), and the absorbance of CuL in the absence of competing ligand (ACu-L). The proportion of Cu^2+ chelated by L was calculated as x=(AL-Amix)/(AL-ACu-L). Experiments were performed in triplicate.

CN(C)CCNCCc1ccc2c(Cl)cc(Cl)c(N)c2n1 [TDMQ-20, N^1-(2-(8-amino-5,7-dichloroquinolin-2-yl)ethyl)-N^2,N^2-dimethylethane-1,2-diamine]
difference between binding constants for copper and zinc: 12 orders of magnitude

CN(C)CCCNCc1ccc2c(Cl)cc(Cl)c(N)c2n1 [TDMQ-19, N^1-((8-amino-5,7-dichloroquinolin-2-yl)methyl)-N^3,N3-dimehypropane-1,3-diamine]
difference between binding constants for copper and zinc: 10 orders of magnitude
